The values below come from patent publication US7667052B2 (Eisai R&D Management Co., Ltd., priority 2003, dated 2010).

Data set [1] relates to VEGF production in U251 human glioma cell. Description: VEGF production suppressing action under low oxygen, ELISA. The format is cell-based. Conditions: for VEGF production suppressing action: IC50: U251, low oxygen (2% O2) incubator 18 hours; for VEGF production suppression, in words: U251, low oxygen stimulation. The procedure: U251 human glioma cell cultured in DULBECCO-modified eagle medium (DMEM; manufactured by SIGMA Co., Ltd.) containing 10% fetal calf serum, penicillin (100 unit/ml) and streptomycin (100 μg/ml) was dispensed in 96-well plates by 4×10^4 cells/well. After culturing at 37° C. overnight in a CO2 incubator (5% CO2), the media were removed, and 180 μl of the above-mentioned incubation solution was charged. After adding 20 μL of the above-mentioned incubation solution containing the test compound diluted with 3-fold succession, they were incubated in a low oxygen (2% O2) incubator for 18 hours. The supernatants thereof were measured by an ELISA kit (Immunobiology Research Institute).
Concentration at which the amount of VEGF expressed by low oxygen stimulation was suppressed to 50% (IC50 value) was determined and results are shown in Table 9. […] The activities of 11107F and 11107G were very weak.
(In general: An ELISA detects its analyte on a solid surface through an enzyme-linked reagent.)

Data set [2] deals with human breast cancer BSY-1 cell. Kind of data set: Solid cancer proliferation suppressing action, subcutaneous transplant. Type of data set: in vivo, mice. Particulars: 10 mg/kg once intravenous. The procedure: In order to study solid cancer proliferation suppressing action of 11107B in vivo, human breast cancer BSY-1 cell was transplanted to the subcutaneous body sides of mice. The animals were grouped so that the average of the volumes of the respective groups became uniform, when it reached about 100 mm^3. Control group was made as 10 mice and 11107B-administering groups were made as 5 mice. 11107B was administrated for the 11107B-administering groups once by intravenous injection so as to be 10 mg/kg, and a vehicle was administered to the control group. The tumor volumes on the fifth day, eighth day, 12th day and 15th day were measured, and relative tumor volumes were determined setting the tumor volume at the initiation of administration as 1.

Data set [3] is described as follows: Solubility (physico-chemical properties of the 11107 analogues). Particulars: in dimethylsulfoxide, pyridine, methanol, acetone and water.
The test system of data set [4] is transcription from VEGF promoter. Kind of data set: VEGF transcription-suppressing activity, VEGF-PLAP reporter in U251/1-8 cell. The format is cell-based. Conditions: Homo sapiens, U-251, U251/1-8 cell, PLAP activity, low oxygen 18 hours. In outline: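 U251 glioma clone stably carrying a ~2.3 kb human VEGF promoter–secreted PLAP reporter, 4×10^4 cells/well, exposed to 3-fold dilutions of compound for 18 h under low oxygen. Supernatant PLAP read by chemiluminescence at pH 10.0; IC50 = 50% suppression, normoxia 0%, hypoxia 100%.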

The test system of another data set is P388 mouse leukemia cell. Particulars: Seki-Asano M. et al, J. Antibiotics Vol. 47, 1395-1401, 1994; cited from earlier work.
[5] abbreviates: read-out: IC50 values of VEGF transcription-suppressing activity (range given).
The mark [6] stands for this setting: read-out: VEGF transcription suppressing activity (IC50: nM).

Molecules are shown by their SMILES. Where two headings read alike, the source gives them in different places.

`CCC(O)C(C)C1OC1CC(C)/C=C/C=C(\C)C1OC(=O)CC(O)CCC(C)(O)C(O)/C=C/C1C` (stereo not shown) [11107 A]: the “VEGF production suppressing action: IC50” value in data set [1] turned out to be 111 ng/mL.
`CCC(O)C(C)C1OC1CC(C)(O)/C=C/C=C(\C)C1OC(=O)CC(O)CCC(C)(O)C(O)/C=C/C1C` (stereo not shown) [11107F]: the “VEGF production suppression, in words” value in data set [1] is listed as “very weak”.
`CCC(O)C(C)C1OC1CC(C)/C=C/C=C(\C)C1OC(=O)CC(O)CCC(C)(O)C(OC(C)=O)/C=C/C1C` (stereo not shown) [11107 B]: the “VEGF production suppressing action: IC50” value in data set [1] came to 0.8 ng/mL. For the same compound, the relative tumor volume in data set [2] (day 1 after the administration (volume at initiation of administration set as 1)) turned out to be 1; in data set [2] (day 5 after the administration) it was 1.08; in data set [2] (day 8 after the administration), 1.28; in data set [2] (day 12 after the administration), 1.40; in data set [2] (day 15 after the administration), 1.70.
A word on the IC50: it is the concentration that inhibits the measured activity by half. As for `CC(=O)OC1/C=C/C(C)C(/C(C)=C/C=C/C(C)CC2OC2C(C)C(C)O)OC(=O)CC(O)CCC1(C)O` (stereo not shown) [11107J], the Solubility entry in data set [3] was “soluble in dimethylsulfoxide, pyridine, methanol and acetone, and slightly soluble in water”. Moreover, the IC50 in data set [4] (setting [5]) is 1 to 100 nM; in data set [4] (setting [6]), 5.9 nM.
For the compound `CCC(O)C(C)/C=C/CC(C)/C=C/C=C(\C)C1OC(=O)CC(O)CCC(C)(O)C(OC(C)=O)/C=C/C1C` (stereo not shown) [11107BI], in data set [3], the Solubility result was “soluble in dimethylsulfoxide, pyridine, methanol and acetone, and slightly soluble in water”. Also, the IC50 in data set [4] (setting [5]) was 1 to 100 nM.
As for `CCC(=O)C(C)C1OC1CC(C)/C=C/C=C(\C)C1OC(=O)CC(O)/C=C/C(C)(O)C(OC(C)=O)/C=C/C1C` (stereo not shown) [11107AL], the Solubility entry in data set [3] is “soluble in dimethylsulfoxide, pyridine, methanol and acetone, and slightly soluble in water”. For the same compound, the IC50 in data set [4] (setting [5]) lay in the range of 1 to 100 nM.
As to `CCC(=O)OC1/C=C/C(C)C(/C(C)=C/C=C/C(C)CC2OC2C(C)C(O)CC)OC(=O)CC(O)CCC1(C)O` (stereo not shown) [11107I], the Solubility result in data set [3] is “soluble in dimethylsulfoxide, pyridine, methanol and acetone, and slightly soluble in water”. In data set [4] (setting [5]), the IC50 is 1 to 100 nM.
As to `CCC(O)C(C)C1OC1CC(C)(O)/C=C/C=C(\C)C1OC(=O)CC(O)CCC(C)(O)C(OC(C)=O)/C=C/C1C` (stereo not shown) [11107 D], in data set [1], the “VEGF production suppressing action: IC50” value turned out to be 3.2 ng/mL.
Same read-out and setting: the value for `CCC(O)C(C)(O)C1OC1CC(C)/C=C/C=C(\C)C1OC(=O)CC(O)CCC(C)(O)C(OC(C)=O)/C=C/C1C` (stereo not shown) [11107 E] was 36.3 ng/mL.
Turning to `CCC(O)C(C)(O)C1OC1CC(C)/C=C/C=C(\C)C1OC(=O)CC(O)CCC(C)(O)C(O)/C=C/C1C` (stereo not shown) [11107G], the Solubility entry in data set [3] is “soluble in dimethylsulfoxide, pyridine, methanol and acetone, and slightly soluble in water”. In data set [1], the “VEGF production suppression, in words” value is recorded as “very weak”.
For the compound `CCC1OC1(C)C(O)C(C)/C=C/C=C(\C)C1OC(=O)CC(O)CCC(C)(O)C(OC(C)=O)/C=C/C1C` (stereo not shown) [11107BG], the Solubility result in data set [3] is “soluble in dimethylsulfoxide, pyridine, methanol and acetone, and slightly soluble in water”. In data set [4] (setting [5]), the IC50 is 1 to 100 nM.
On to `CCC(O)C(C)C1OC1CC(C)/C=C/C=C(\C)C1OC(=O)CC(OC(C)=O)CCC(C)(O)C(OC(C)=O)/C=C/C1C` (stereo not shown) [11107M], for which, in data set [3], the Solubility result was “soluble in dimethylsulfoxide, pyridine, methanol and acetone, and slightly soluble in water”. Further, the IC50 in data set [4] (setting [5]) fell in the range of 1 to 100 nM.
For `CCC1OC1C(O)C(C)/C=C/C=C(\C)C1OC(=O)CC(O)CCC(C)(O)C(OC(C)=O)/C=C/C1C` (stereo not shown) [11107AY], the Solubility result in data set [3] was “soluble in dimethylsulfoxide, pyridine, methanol and acetone, and slightly soluble in water”. Further, the IC50 in data set [4] (setting [5]) lay in the range of 1 to 100 nM.
For `CCC(OC)C(C)C1OC1C(O)C(C)/C=C/C=C(\C)C1OC(=O)CC(O)CCC(C)(O)C(OC(C)=O)/C=C/C1C` (stereo not shown) [FD895], in the data set with P388 mouse leukemia cell, the “effect in an animal experiment using P388 mouse leukemia cell” value is listed as “ineffective”.
As to `CCC(O)C(C)C1OC1CC(C)/C=C/C=C(\C)C1OC(=O)CC(O)CCC(O)(COC(C)=O)C(OC(C)=O)/C=C/C1C` (stereo not shown) [11107N], the Solubility entry in data set [3] was “soluble in dimethylsulfoxide, pyridine, methanol and acetone, and slightly soluble in water”. The IC50 in data set [4] (setting [5]) is 1 to 100 nM.
Take `CC(=O)OC1/C=C/C(C)C(/C(C)=C/C=C/C(C)C/C=C/C(C)C(O)C(C)O)OC(=O)CC(O)CCC1(C)O` (stereo not shown) [11107AJ]: in data set [3], the Solubility result was “soluble in dimethylsulfoxide, pyridine, methanol and acetone, and slightly soluble in water”. Moreover, the IC50 in data set [4] (setting [5]) lay in the range of 1 to 100 nM.
As to `CCC(=O)C(C)C1OC1CC(C)/C=C/C=C(\C)C1OC(=O)CC(O)CCC(C)(O)C(OC(C)=O)/C=C/C1C` (stereo not shown) [11107C, (8E,12E,14E)-7-Acetoxy-3,6-dihydroxy-6,10,12,16,20-pentamethyl-21-oxo-18,19-epoxytricosa-8,12,14-trien-11-olide], the “VEGF production suppression, in words” value in data set [1] is “strong successive to 11107B”. For the same compound, the IC50 is 1 to 100 nM in data set [4] (setting [5]) and 8.2 nM in data set [4] (setting [6]).
For `CCC(O)C(C)C1OC1C(O)C(C)/C=C/C=C(\C)C1OC(=O)CC(O)/C=C/C(C)(O)C(OC(C)=O)/C=C/C1C` (stereo not shown) [11107AX], the Solubility result in data set [3] is “soluble in dimethylsulfoxide, pyridine, methanol and acetone, and slightly soluble in water”. Besides, in data set [4] (setting [5]), the IC50 was 1 to 100 nM.
With `CCC(O)C(C)C1OC1CC(C)/C=C/C=C/C1OC(=O)CC(O)CCC(C)(O)C(OC(C)=O)/C=C/C1C` (stereo not shown) [11107W], the Solubility entry in data set [3] was “soluble in dimethylsulfoxide, pyridine, methanol and acetone, and slightly soluble in water”. In addition, the IC50 in data set [4] (setting [5]) is 1 to 100 nM.
For `CCC(O)C(C)(O)C1OC1CC(C)/C=C/C=C(\C)C1OC(=O)CC(O)CCC(C)(O)C(OC(C)=O)/C=C/C1C` (stereo not shown) [11107E], the Solubility result in data set [3] is “soluble in dimethylsulfoxide, pyridine, methanol and acetone, and slightly soluble in water”. Besides, in data set [4] (setting [5]), the IC50 is 1 to 100 nM.
As for `CCC(O)C(C)C1OC1CC(C)/C=C/C=C(\C)C1OC(=O)CC(O)CC(O)C(C)C(OC(C)=O)/C=C/C1C` (stereo not shown) [11107Y], the Solubility result in data set [3] is “soluble in dimethylsulfoxide, pyridine, methanol and acetone, and slightly soluble in water”. Also, the IC50 in data set [4] (setting [5]) lay in the range of 1 to 100 nM.
For the compound `CCC(=O)C(C)C1OC1CC(C)/C=C/C=C(\C)C1OC(=O)CC(O)CCC(C)(O)C(OC(C)=O)/C=C/C1C` (stereo not shown) [11107 C], the “VEGF production suppressing action: IC50” value in data set [1] was determined as 3.0 ng/mL.
Regarding `CCC(O)C(C)C1OC1CC(C)/C=C/C=C(\C)C1OC(=O)CC(O)CC(=O)C(C)(O)C(OC(C)=O)/C=C/C1C` (stereo not shown) [11107BH], the Solubility result in data set [3] was “soluble in dimethylsulfoxide, pyridine, methanol and acetone, and slightly soluble in water”. Besides, the IC50 is 1 to 100 nM in data set [4] (setting [5]) and 2.6 nM in data set [4] (setting [6]).
On to `CCC(O)C(C)C1OC1CC(C)/C=C/C=C(\C)C1OC(=O)CC(O)CCC(C)(OC(C)=O)C(OC(C)=O)/C=C/C1C` (stereo not shown) [11107AQ], for which the Solubility result in data set [3] is “soluble in dimethylsulfoxide, pyridine, methanol and acetone, and slightly soluble in water”. Further, the IC50 in data set [4] (setting [5]) lay within 1 to 100 nM.
Regarding `CC(=O)OC1/C=C/C(C)C(/C(C)=C/C=C/C(C)CC2OC2C(C)O)OC(=O)CC(O)CCC1(C)O` (stereo not shown) [11107R], the Solubility entry in data set [3] was “soluble in dimethylsulfoxide, pyridine, methanol and acetone, and slightly soluble in water”. In addition, the IC50 in data set [4] (setting [5]) lay within 1 to 100 nM.
Consider `CCC(O)C(C)C1OC1CC(C)(O)/C=C/C=C(\C)C1OC(=O)CC(O)CCC(C)(O)C(OC(C)=O)/C=C/C1C` (stereo not shown) [11107D], for which the Solubility result in data set [3] was “soluble in dimethylsulfoxide, pyridine, methanol and acetone, and slightly soluble in water”. In addition, in data set [1], the “VEGF production suppression, in words” value was “strong successive to 11107B”. For the same compound, the IC50 in data set [4] (setting [5]) was 1 to 100 nM; in data set [4] (setting [6]) it was 6.6 nM.
For the compound `CCC(O)C(C)C1OC1CC(C)/C=C/C=C(\C)C1OC(=O)CC(O)CC(OC(C)=O)C(C)(O)C(OC(C)=O)/C=C/C1C` (stereo not shown) [11107L], the Solubility entry in data set [3] is “soluble in dimethylsulfoxide, pyridine, methanol and acetone, and slightly soluble in water”. Further, in data set [4] (setting [5]), the IC50 fell in the range of 1 to 100 nM.
In the case of `CC(=O)OC1/C=C/C(C)C(/C(C)=C/C=C/C(C)CC2OC2C(C)C(O)C(C)O)OC(=O)CC(O)CC(O)C1(C)O` (stereo not shown) [11107AZ], in data set [3], the Solubility result is “soluble in dimethylsulfoxide, pyridine, methanol and acetone, and slightly soluble in water”. Further, in data set [4] (setting [5]), the IC50 is 1 to 100 nM.
`CC(=O)OC1/C=C/C(C)C(/C(C)=C/C=C/C(C)CC2OC2C(C)C(O)C(C)O)OC(=O)CC(O)CCC1(C)O` (stereo not shown) [11107AW]: the Solubility entry in data set [3] is “soluble in dimethylsulfoxide, pyridine, methanol and acetone, and slightly soluble in water”. The IC50 in data set [4] (setting [5]) was 1 to 100 nM.
